The test system of experiment [1] is Mus musculus. The experiment in a line: In vivo AMPA antagonistic activity was determined by measuring ability to antagonize AMPA induced lethal convulsions in mice at 15 min upon intraperitoneal administration. As to conditions: ip, 0.25 h. The experiment is classed as functional.
The target in experiment [2] is Glutamate receptor ionotropic, AMPA (Mus musculus, UniProt P23818+P23819+Q9Z2W8+Q9Z2W9).
Description: Compound was tested for binding affinity against Ionotropic glutamate receptor AMPA using [3H]AMPA as a radioligand.
Experiment [3] concerns Mus musculus. Put plainly: In vivo AMPA antagonistic activity was determined by measuring ability to antagonize AMPA induced lethal convulsions in mice at 60 min upon intraperitoneal administration. The experiment is classed as functional. The note with it: ip, 1 h.

pKi: −log10 of the molar value.

As usually defined, the ED50 is the dose at which the effect has come halfway, by size or by number of responders. Read a high ED50 as weaker potency. By pKi is commonly meant the negative decadic logarithm of the Ki, by convention in mol/L. As to `O=C(O)Cn1c(=O)c(=O)[nH]c2cc([N+](=O)[O-])c(-n3cccc3)cc21`, the ED50 in experiment [1] and in experiment [3] was 30 mg/kg each time. In addition, the pKi in experiment [2] was 7.15. On to `O=C(CCn1c(=O)c(=O)[nH]c2cc(C(F)(F)F)c(-n3cccc3)cc21)NCc1ccccc1`, for which, in experiment [2], the pKi is 5.10. With `CCn1c(=O)c(=O)[nH]c2cc([N+](=O)[O-])c(-n3cccc3)cc21`, the ED50 in experiment [1] is > 50 mg/kg; in experiment [3] it was 12 mg/kg. This compound gave a pKi in experiment [2] of 6.07. For `O=c1[nH]c2cc(-n3cccc3)c([N+](=O)[O-])cc2n(C2CCCCC2)c1=O`, in experiment [2], the pKi was 4.60. Take `O=C(O)CCn1c(=O)c(=O)[nH]c2cc([N+](=O)[O-])c(-n3cccc3)cc21`: the ED50 in experiment [1] and in experiment [3] was > 30 mg/kg each time. The compound also showed a pKi in experiment [2] of 6.48.

In experiment [2], `Oc1nc2cc(Cl)c(-n3cccc3)cc2nc1O` showed a pKi of 4.70.

For `O=C(O)Cn1c(=O)c(=O)[nH]c2cc(C(F)(F)F)c(-n3cccc3)cc21`, the median effective dose (ED50) in experiment [1] and in experiment [3] was > 50 mg/kg in each case. Moreover, the pKi in experiment [2] was 6.77.

Regarding `CS(=O)(=O)c1cc2[nH]c(=O)c(=O)n(C3CCCCC3)c2cc1-n1cccc1`, the pKi in experiment [2] is 4.82. For the compound `CCOC(=O)CCn1c(=O)c(=O)[nH]c2cc([N+](=O)[O-])c(-n3cccc3)cc21`, the ED50 in experiment [1] is > 30 mg/kg; in experiment [3], 14 mg/kg. In addition, in experiment [2], the pKi was 6.59.

In the case of `O=C(O)CCn1c(=O)c(=O)[nH]c2cc(C(F)(F)F)c(-n3cccc3)cc21`, the ED50 in experiment [1] and in experiment [3] was > 50 mg/kg each time. In addition, in experiment [2], the pKi was 6.41. Turning to `O=[N+]([O-])c1cc2nc(O)c(O)nc2cc1-n1cccc1`, the ED50 in experiment [1] was 21 mg/kg; in experiment [3], 31 mg/kg. For the same compound, in experiment [2], the pKi is 6.40. In experiment [2], `O=c1[nH]c2cc([N+](=O)[O-])c(-n3cccc3)cc2n(C2CC2)c1=O` had a pKi of 5.46. Consider `O=c1[nH]c2cc([N+](=O)[O-])c(-n3cccc3)cc2n(C2CCCCC2)c1=O`, for which the ED50 in experiment [1] was > 50 mg/kg; in experiment [3] it was 22 mg/kg. Also, in experiment [2], the pKi was 6.40. On to `CCOC(=O)Cn1c(=O)c(=O)[nH]c2cc([N+](=O)[O-])c(-n3cccc3)cc21`, for which the results for the ED50 in experiment [1] and in experiment [3] were > 50 mg/kg and 26 mg/kg, respectively. The pKi in experiment [2] was 6.04. Consider `COC(=O)Cn1c(=O)c(=O)[nH]c2cc(C(F)(F)F)c(-n3cccc3)cc21`, for which the pKi in experiment [2] is < 4.60. On the same count and under the same terms, the same measure for `CCNC(=O)Cn1c(=O)c(=O)[nH]c2cc([N+](=O)[O-])c(-n3cccc3)cc21`: 5.57; for `CCOC(=O)CCn1c(=O)c(=O)[nH]c2cc(C(F)(F)F)c(-n3cccc3)cc21`: 6.24. For the compound `Oc1nc2cc(C(F)(F)F)cc(-n3cccc3)c2nc1O`, the pKi in experiment [2] was < 4.60. In the case of `O=C(Cn1c(=O)c(=O)[nH]c2cc([N+](=O)[O-])c(-n3cccc3)cc21)NCCc1ccccc1`, the pKi in experiment [2] was 4.70. The compound `CNC(=O)Cn1c(=O)c(=O)[nH]c2cc(C(F)(F)F)c(-n3cccc3)cc21` had a pKi in experiment [2] of 4.70. Turning to `O=C(Cn1c(=O)c(=O)[nH]c2cc([N+](=O)[O-])c(-n3cccc3)cc21)Nc1ccccc1`, the pKi in experiment [2] is 5.68.

In experiment [2], `O=c1[nH]c2cc(C(F)(F)F)c(-n3cccc3)cc2n(C2CCCCC2)c1=O` showed a pKi of 5.80. Consider `NS(=O)(=O)c1cccc2c1c([N+](=O)[O-])cc1nc(O)c(O)nc12` [NBQX], for which the ED50 in experiment [1] and in experiment [3] was > 50 mg/kg each time.

In experiment [2], `O=C(Cn1c(=O)c(=O)[nH]c2cc([N+](=O)[O-])c(-n3cccc3)cc21)NCc1ccccc1` had a pKi of 4.70. On the same count and under the same terms, the same measure for `O=c1[nH]c2cc(Cl)c(-n3cccc3)cc2n(C2CCCCC2)c1=O`: 5.00. For `CCC(CC)Cn1c(=O)c(=O)[nH]c2cc([N+](=O)[O-])c(-n3cccc3)cc21`, in experiment [2], the pKi was 5.22.

`Oc1nc2cc(-n3cccc3)c(C(F)(F)F)cc2nc1O` showed a pKi in experiment [2] of 5.52.

(Values after ChEMBL document CHEMBL1128942, “Pyrrolylquinoxalinediones: A new class of AMPA receptor antagonists” (Bioorg Med Chem Lett, 1996).)
